Experimental data as given in US10538516B2, “Oxadiazole derivative and pharmaceutical containing same” (National Center for Geriatrics and Gerontology, priority 2015, dated 2020).

Biological target: T1, GAβ-dependent amyloid fibril formation (Human Aβ1-40 + GM1-containing liposome) (Homo sapiens, UniProt P05067)
T1 construct: Human Aβ1-40 (cat. #4307-v, prepared by Peptide Institute); purchased Peptide Institute 4307-v
Assay: Thioflavin T (ThT) assay of GAβ-dependent amyloid fibril formation (Aβ1-40 with GM1-containing liposome)
Assay type: biochemical
Settings: @5 μM; read-out: ThT Inhibitory activity (% inhibition)
How it was run: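 Human Aβ1-40 (75 μM stock) pre-incubated 10 min at room temperature with compound (75 or 15 μM solution), then GM1-containing cholesterol/sphingomyelin liposome added and incubated 37° C, 18 hours. Fibrils quantified by ThT fluorescence (ex 430/em 490 nm, pH 8.5 glycine buffer); inhibition as ratio to compound-free control.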

T1 sequence (P05067 672-711 limits assumed): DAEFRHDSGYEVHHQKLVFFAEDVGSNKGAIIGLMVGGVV

inhibition at 5 µM [%]	SMILES
67	O=C(N[C@@H](CO)c1nc(-c2ccc(C(F)(F)F)cc2)no1)c1ccccc1 [Compound 130, (S)-N-(2-hydroxy-1-(3-(4-(trifluoro-methyl)phenyl)-1,2,4-oxadiazol-5-yl)ethyl)benzamide]

Same assay, conditions: @25 μM; read-out: ThT Inhibitory activity (% inhibition)

inhibition at 25 µM [%]	SMILES
85	O=C(N[C@@H](CO)c1nc(-c2ccc(C(F)(F)F)cc2)no1)c1ccccc1 [Compound 130, (S)-N-(2-hydroxy-1-(3-(4-(trifluoro-methyl)phenyl)-1,2,4-oxadiazol-5-yl)ethyl)benzamide]
75	O=C(N[C@@H](CO)c1nnc(-c2ccc(OC(F)(F)F)cc2)o1)c1ccc(Cl)cc1 [Compound 104, (S)-4-chloro-N-(2-hydroxy-1-{5-[4-(trifluoromethoxy)phenyl]-1,3,4-oxadiazol-2-yl}ethyl)benzamide]
71	O=C(N[C@@H](CO)c1nc(-c2c[nH]c3ncccc23)no1)c1ccc(F)cc1 [Compound 229, 4-fluoro-N-[(1S)-2-hydroxy-1-(3-{1H-pyrrolo[2,3-b]pyridin-3-yl}-1,2,4-oxadiazol-5-yl)ethyl]benzamide]

Same assay, conditions: inhibition rate against amyloid fibril formation, final concentration of the compound 25 μM

Inhibitory activity ABC evaluation	SMILES
A (80% or more was evaluated as A)	Cl.O=C(N[C@@H](CO)c1nc(-c2ccc(C(F)(F)F)cn2)no1)c1ccc(Cl)cc1 [Compound 207, 4-chloro-N-[(1S)-2-hydroxy-1-{3-[5-(trifluoromethyl)pyridin-2-yl]-1,2,4-oxadiazol-5-yl}ethyl]benzamide hydrochloride]

Same assay, conditions: inhibition rate against amyloid fibril formation, final concentration of the compound 25 μM; 25 µM

SMILES	Inhibitory activity ABC evaluation
O=C(c1ccc(Cl)cc1)N1C[C@H](O)C[C@H]1c1nc(-c2ccc(OC(F)(F)F)cc2)no1 [Compound 82, (4-chlorophenyl) ((2S,4R)-4-hydroxy-2-[3-{4-(trifluoro-methoxy)phenyl}-1,2,4-oxadiazol-5-yl]pyrrolidin-1-yl)methanone]	C (the inhibition rate of less than 40% was evaluated as C)

Same assay, conditions: inhibition rate against amyloid fibril formation, final concentration of the compound 25 μM; read-out: Inhibitory activity ABC evaluation

inhibition at 25 µM [%]	SMILES
40 to 80	O=C(N[C@@H](CO)c1nc(-c2ccoc2Cl)no1)c1ccc(F)cc1 [Compound 255, N-[(1S)-1-[3-(2-chlorofuran-3-yl)-1,2,4-oxadiazol-5-yl]-2-hydroxyethyl]-4-fluorobenzamide]
> 80	O=C(N[C@@H](CO)c1nc(-c2ccc(C(F)(F)F)cc2)no1)c1ccc(Cl)cc1F [Compound 236, 4-chloro-2-fluoro-N-[(1S)-2-hydroxy-1-{3-[4-(trifluoromethyl)phenyl]-1,2,4-oxadiazol-5-yl}ethyl]benzamide]
< 40	O=C(N[C@@H](CO)c1nc(-c2cccc(C(F)(F)F)c2)no1)c1cn2ccccc2n1 [Compound 244, N-[(1S)-2-hydroxy-1-{3-[3-(trifluoromethyl)phenyl]-1,2,4-oxadiazol-5-yl}ethyl]imidazo[1,2-a]pyridine-2-carboxamide]
< 40	O=C1C[C@@H](c2nc(-c3ccc(OC(F)(F)F)cc3)no2)N(C(=O)c2ccc(Cl)cc2)C1 [Compound 57, (S)-1-(4-chlorobenzoyl)-5-{3-[4-(trifluoromethoxy)phenyl]-1,2,4-oxadiazol-5-yl}pyrrolidin-3-one]
40 to 80	O=C(N[C@@H](CO)c1nc(-c2ccc(CF)cc2)no1)c1ccc(F)cc1 [Compound 161, 4-fluoro-N-[(1S)-1-{3-[4-(fluoromethyl)phenyl]-1,2,4-oxadiazol-5-yl}-2-hydroxyethyl] benzamide]
< 40	O=C(c1ccc(Cl)cn1)N1C[C@H](O)C[C@H]1c1nc(-c2ccc(OC(F)(F)F)cc2)no1 [Compound 60, (5-chloropyridin-2-yl)((2S,4R)-4-hydroxy-2-[3-{4-(trifluoro-methoxy)phenyl}-1,2,4-oxadiazol-5-yl]pyrrolidin-1-yl)methanone]
40 to 80	O=C(N[C@@H](CO)c1nc(-c2ccc3ccccc3n2)no1)c1ccc(F)cc1 [Compound 225, 4-fluoro-N-[(1S)-2-hydroxy-1-[3-(quinolin-2-yl)-1,2,4-oxadiazol-5-yl]ethyl] benzamide]
40 to 80	O=C(c1ccc(Cl)cc1)N1C[C@H](O)C[C@H]1c1nc(-c2ccc(OC(F)(F)F)cc2)no1 [Compound 34, (3R,5S)-1-(4-chlorobenzoyl)-5-{3-[4-(trifluoromethoxy)phenyl]-1,2,4-oxadiazol-5-yl}pyrrolidin-3-ol]
40 to 80	O=C1CC(c2nc(-c3ccc(OCF)cc3)no2)CN1c1ccc(Cl)cc1 (centres unmarked) [Compound 53, 1-(4-chlorophenyl)-4-[3-{4-(fluoromethoxy)phenyl}-1,2,4-oxadiazol-5-yl]pyrrolidin-2-one]
40 to 80	O=C(N[C@@H](CO)c1nc(-c2ccc(-n3cccn3)cc2)no1)c1ccc(F)cc1 [Compound 179, 4-fluoro-N-[(1S)-2-hydroxy-1-{3-[4-(1H-pyrazol-1-yl)phenyl]-1,2,4-oxadiazol-5-yl}ethyl]benzamide]
40 to 80	Cn1cc(-c2noc([C@H](CO)NC(=O)c3ccc(F)cc3)n2)c2ccccc21 [Compound 245, 4-fluoro-N-[(1S)-2-hydroxy-1-[3-(1-methyl-1H-3-yl)-1,2,4-oxadiazol-5-yl]ethyl]benzamide]
< 40	N[C@@H](Cc1c[nH]c2ccccc12)C(=O)N[C@@H](CO)c1nc(-c2ccc(C(F)(F)F)cc2)no1 [Compound 241, (2S)-2-amino-N-[(1S)-2-hydroxy-1-{3-[4-(trifluoromethyl)phenyl]-1,2,4-oxadiazol-5-yl}ethyl]-3-(1H-indol-3-yl)propanamide]
40 to 80	O=C1CC[C@@H](c2nc(-c3ccc(OC(F)(F)F)cc3)no2)N1C(=O)c1ccc(Cl)cc1 [Compound 84, (S)-1-(4-chloro-benzoyl)-5-[3-{4-(trifluoromethoxy)phenyl}-1,2,4-oxadiazol-5-yl]pyrrolidin-2-one]
40 to 80	Oc1ccc(-c2noc(C(O)Cc3c[nH]c4ccccc34)n2)cc1 (centres unmarked) [Compound 89, 4-[5-{1-hydroxy-2-(1H-indol-3-yl)ethyl}-1,2,4-oxadiazol-3-yl]phenol]
40 to 80	O=C1CC(c2nc(-c3ccccc3)no2)CN1c1ccc(Cl)cc1 (centres unmarked) [Compound 43, 1-(4-chlorophenyl)-4-(3-phenyl-1,2,4-oxadiazol-5-yl) pyrrolidin-2-one]
40 to 80	N#Cc1cccc(-c2nnc([C@H](CO)NC(=O)c3ccc(Cl)cc3)o2)c1 [Compound 106, (S)-4-chloro-N-(1-(5-(3-cyanophenyl)-1,3,4-oxadiazol-2-yl)-2-hydroxyethyl) benzamide]

inhibition at 25 µM [%]	SMILES
> 80	O=C(N[C@@H](CO)c1nc(-c2cccc(C(F)(F)F)c2)no1)c1ccc(F)cc1 [Compound 176, 4-fluoro-N-[(1S)-2-hydroxy-1-{3-[3-(trifluoromethyl)phenyl]-1,2,4-oxadiazol-5-yl}ethyl] benzamide]
40 to 80	O=C(N[C@@H](CO)c1nc(-c2ccc(Br)cc2)no1)c1ccc(F)cc1 [Compound 163, N-[(1S)-1-[3-(4-bromophenyl)-1,2,4-oxadiazol-5-yl]-2-hydroxyethyl]-4-fluorobenzamide]
40 to 80	Nc1[nH]cnc1-c1noc([C@H](CO)NC(=O)c2ccc(F)cc2)n1 [Compound 258, N-[(1S)-1-[3-(5-amino-1H-imidazol-4-yl)-1,2,4-oxadiazol-5-yl]-2-hydroxyethyl]-4-fluorobenzamide]
40 to 80	O=C(N[C@@H](CO)c1nc(-c2cn(CCO)c3ccccc23)no1)c1ccc(F)cc1 [Compound 264]
< 40	O=C(NC1(c2nc(-c3ccc(OC(F)(F)F)cc3)no2)CCCC1)c1ccc(Cl)nc1 [Compound 31, 6-chloro-N-(1-[3-{4-(trifluoromethoxy)phenyl}-1,2,4-oxadiazol-5-yl]cyclopentyl) nicotinamide]
> 80	O=C(N[C@@H](CO)c1nc(-c2ccc(C(F)(F)F)cc2)no1)c1ccccc1 [Compound 130, (S)-N-(2-hydroxy-1-(3-(4-(trifluoro-methyl)phenyl)-1,2,4-oxadiazol-5-yl)ethyl)benzamide]
40 to 80	O=C(N[C@@H](CO)c1nc(-c2c[nH]c3ccc(Cl)cc23)no1)c1ccc(Cl)cc1F [Compound 252, 4-chloro-N-[(1S)-1-[3-(5-chloro-1H-indol-3-yl)-1,2,4-oxadiazol-5-yl]-2-hydroxyethyl]-2-fluorobenzamide]
> 80	O=C(N[C@@H](CO)c1nc(-c2ccc3[nH]ccc3c2)no1)c1ccc(F)cc1 [Compound 175, 4-fluoro-N-[(1S)-2-hydroxy-1-[3-(1H-indol-5-yl)-1,2,4-oxadiazol-5-yl]ethyl] benzamide]
40 to 80	O=C(N[C@@H](CO)c1nc(-c2ccc3cc[nH]c3c2)no1)c1ccc(F)cc1 [Compound 250, 4-fluoro-N-[(1S)-2-hydroxy-1-[3-(1H-indol-6-yl)-1,2,4-oxadiazol-5-yl]ethyl]benzamide]
40 to 80	CS(=O)(=O)Nc1ccc(-c2noc(C3CC(=O)N(c4ccc(Cl)cc4)C3)n2)cc1 (centres unmarked) [Compound 65, N-(4-[5-{1-(4-chlorophenyl)-5-oxopyrrolidin-3-yl}-1,2,4-oxadiazol-3-yl]phenyl) methane-sulfonamide]
40 to 80	O=C(N[C@@H](CO)c1nnc(-c2ccc(OC(F)(F)F)cc2)o1)c1ccc(Cl)cc1 [Compound 104, (S)-4-chloro-N-(2-hydroxy-1-{5-[4-(trifluoromethoxy)phenyl]-1,3,4-oxadiazol-2-yl}ethyl)benzamide]
40 to 80	O=C(N[C@@H](CO)c1nc(-c2c[nH]c3ncccc23)no1)c1ccc(F)cc1 [Compound 229, 4-fluoro-N-[(1S)-2-hydroxy-1-(3-{1H-pyrrolo[2,3-b]pyridin-3-yl}-1,2,4-oxadiazol-5-yl)ethyl]benzamide]
40 to 80	CC(C)c1ccc(-c2noc([C@H](CO)NC(=O)c3ccccc3)n2)cc1 [Compound 145, N-[(1S)-2-hydroxy-1-{3-[4-(propan-2-yl)phenyl]-1,2,4-oxadiazol-5-yl}ethyl]benzamide]
40 to 80	O=C(N[C@@H](CO)c1nc(-c2c[nH]c3cc(F)ccc23)no1)c1ccc(F)cc1 [Compound 260, 4-fluoro-N-[(1S)-1-[3-(6-fluoro-1H-indol-3-yl)-1,2,4-oxadiazol-5-yl]-2-hydroxyethyl] benzamide]
> 80	O=C(N[C@@H](CO)c1nc(-c2cc3ccccc3s2)no1)c1ccc(F)cc1 [Compound 232, N-[(1S)-1-[3-(1-benzothiophen-2-yl)-1,2,4-oxadiazol-5-yl]-2-hydroxyethyl]-4-fluorobenzamide]

SMILES	inhibition at 25 µM [%]
N[C@@H](Cc1c[nH]c2ccccc12)c1nc(-c2ccc(OC(F)(F)F)cc2)no1 [Compound 25, (S)-2-(1H-indole-3-yl)-1-[3-(4-trifluoromethoxyphenyl)-1,2,4-oxadiazole-5-yl]ethane-1-amine]	> 80
